Reference: ChEMBL document CHEMBL1201862, “PubChem BioAssay data set” (2004)
The source made the active and inactive calls.

Assays:
[1] = biological target: Large T antigen (Simian virus 40, UniProt P03070); format: functional, Betapolyomavirus macacae;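 note: Confirmatory-stage PubChem screen for compounds that inhibit SV40 T antigen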
[2] = biological target: T1, Rac GTPase-activating protein 1 (Homo sapiens, UniProt Q9H0H5); assay: MgcRacGAP GTPase-activating activity inhibitors, confirmation, biochemical, ADP Hunter fluorescence, primary and confirmatory (AID 624330); format: functional
T1 sequence (Q9H0H5 whole entry): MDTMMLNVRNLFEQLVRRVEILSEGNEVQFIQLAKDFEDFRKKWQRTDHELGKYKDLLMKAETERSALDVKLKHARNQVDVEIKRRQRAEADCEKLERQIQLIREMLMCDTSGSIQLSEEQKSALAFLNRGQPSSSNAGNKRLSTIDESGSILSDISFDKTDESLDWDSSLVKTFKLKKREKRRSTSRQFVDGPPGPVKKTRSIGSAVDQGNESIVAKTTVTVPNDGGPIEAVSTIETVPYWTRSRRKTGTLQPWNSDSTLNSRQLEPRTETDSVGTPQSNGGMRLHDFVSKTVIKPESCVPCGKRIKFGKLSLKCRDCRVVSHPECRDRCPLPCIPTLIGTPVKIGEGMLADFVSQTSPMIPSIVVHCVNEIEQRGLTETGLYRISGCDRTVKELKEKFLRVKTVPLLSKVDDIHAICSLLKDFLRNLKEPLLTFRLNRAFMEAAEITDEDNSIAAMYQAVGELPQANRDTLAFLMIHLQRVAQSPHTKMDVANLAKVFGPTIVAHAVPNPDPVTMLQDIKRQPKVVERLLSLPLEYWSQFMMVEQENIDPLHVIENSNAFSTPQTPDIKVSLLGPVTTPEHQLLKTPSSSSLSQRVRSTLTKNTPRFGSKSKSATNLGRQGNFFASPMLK

[3] = test system: H9c2; assay: cells; format: functional, cell-based; details: Rattus norvegicus, H9c2, Myocardium;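 note: confirmatory concentration-response retest of ultra-high-throughput screening hits for modulation of myocardial damage; cell death induced by hydrogen peroxide oxidative stress; compound pretreatment for 60 min then peroxide exposure for 2 h; potency is for protecting the cells against peroxide damage rather than for killing them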
[4] = cells; format: functional
[5] = biological target: T2, Heat shock factor protein 1 (Mus musculus, UniProt P38532); assay: inhibition of MG132-induced HSE-luciferase signal, confirmation, cell-based, NIH3T3, luminescence, dose retest (AID 2382); format: functional;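 note: NIH3T3 fibroblasts with HSF1-driven luciferase reporter stressed by proteasome inhibitor MG132; luminescence from HSF1-driven luciferase expression after 8 hours of MG132 stress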
T2 sequence (P38532 whole entry): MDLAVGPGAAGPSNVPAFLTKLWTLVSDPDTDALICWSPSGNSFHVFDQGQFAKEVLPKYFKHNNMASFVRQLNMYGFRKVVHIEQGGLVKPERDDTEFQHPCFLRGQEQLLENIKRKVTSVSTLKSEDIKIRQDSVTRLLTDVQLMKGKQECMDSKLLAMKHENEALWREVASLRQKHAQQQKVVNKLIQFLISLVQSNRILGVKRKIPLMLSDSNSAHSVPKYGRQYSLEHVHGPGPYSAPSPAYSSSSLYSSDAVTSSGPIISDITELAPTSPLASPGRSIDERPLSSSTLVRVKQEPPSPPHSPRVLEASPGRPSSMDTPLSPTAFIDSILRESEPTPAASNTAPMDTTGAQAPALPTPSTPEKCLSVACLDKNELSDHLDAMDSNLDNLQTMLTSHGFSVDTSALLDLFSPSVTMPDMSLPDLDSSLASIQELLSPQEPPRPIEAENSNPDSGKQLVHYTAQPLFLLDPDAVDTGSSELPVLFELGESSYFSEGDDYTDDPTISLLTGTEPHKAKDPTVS

[6] = cells; format: functional, cell-based
[7] = cells; format: functional, cell-based; remark: listed apart in the source
[8] = test system: BJ; assay: cytotoxicity toward BJ-TERT fibroblasts, dose response, cell-based, RAS-independent, luminescence (AID 1933); format: functional; details: Homo sapiens
[9] = test system: BJ; assay: cytotoxicity toward BJ-TERT-LT-ST fibroblasts, dose response, cell-based, RAS-independent, luminescence (AID 1935); format: functional; details: Homo sapiens;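 note: BJ fibroblasts immortalized with TERT plus LT and ST oncogenes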
[10] = test system: BJ; assay: cells; format: functional, cell-based; details: Homo sapiens
[11] = cytotoxicity toward DRD oncogenic fibroblasts, dose response, cell-based, non-viral oncogenic, luminescence (AID 1934); format: functional; details: Homo sapiens
[12] = biological target: Fatty acid synthase (Homo sapiens, UniProt P49327); assay: FAS thioesterase domain inhibitors, dose response, biochemical, kinetic fluorescence intensity (AID 624326); format: functional;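 note: rate of fluorescence rise from hydrolysis of a fluorogenic O-methyl fluorescein ester substrate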
[13] = biological target: T3, Replicative DNA helicase DnaB (Mycobacterium tuberculosis, UniProt P9WMR3); assay: DnaB intein splicing inhibitors, dose response, biochemical, cell-free fluorescence (AID 449749); format: functional
T3 sequence (P9WMR3 whole entry): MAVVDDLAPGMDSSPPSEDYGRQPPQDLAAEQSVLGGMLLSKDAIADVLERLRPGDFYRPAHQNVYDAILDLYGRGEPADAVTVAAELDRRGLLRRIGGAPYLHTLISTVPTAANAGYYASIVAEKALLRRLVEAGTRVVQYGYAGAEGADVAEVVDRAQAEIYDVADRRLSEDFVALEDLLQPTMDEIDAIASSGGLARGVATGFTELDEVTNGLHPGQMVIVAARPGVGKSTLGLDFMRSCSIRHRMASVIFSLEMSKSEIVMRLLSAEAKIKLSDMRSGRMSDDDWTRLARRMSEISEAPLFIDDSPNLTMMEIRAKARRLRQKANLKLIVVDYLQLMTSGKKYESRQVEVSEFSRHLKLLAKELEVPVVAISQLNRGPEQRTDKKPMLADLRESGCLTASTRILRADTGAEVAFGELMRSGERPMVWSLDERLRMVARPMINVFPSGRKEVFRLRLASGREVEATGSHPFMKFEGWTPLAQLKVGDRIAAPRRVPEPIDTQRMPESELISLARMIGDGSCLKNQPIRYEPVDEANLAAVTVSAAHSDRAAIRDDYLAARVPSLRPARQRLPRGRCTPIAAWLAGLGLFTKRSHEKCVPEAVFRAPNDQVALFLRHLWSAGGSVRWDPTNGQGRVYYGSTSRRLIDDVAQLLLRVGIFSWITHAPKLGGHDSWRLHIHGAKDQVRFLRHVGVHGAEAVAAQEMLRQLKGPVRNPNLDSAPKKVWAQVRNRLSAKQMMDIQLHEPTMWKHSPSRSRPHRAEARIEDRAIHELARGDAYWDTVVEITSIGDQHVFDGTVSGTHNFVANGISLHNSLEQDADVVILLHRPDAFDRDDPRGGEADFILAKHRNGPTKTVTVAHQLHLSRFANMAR

[14] = biological target: T4, Protein RecA (Mycobacterium tuberculosis, UniProt P9WHJ3); assay: Fluorescence Cell-Free Homogeneous Dose Retest to Identify Inhibitors of RecA-Intein Splicing Activity. [Related pubchem assays (depositor defined):AID2097, AID2223, AID489010, AID492950]; format: functional
T4 sequence (P9WHJ3 whole entry): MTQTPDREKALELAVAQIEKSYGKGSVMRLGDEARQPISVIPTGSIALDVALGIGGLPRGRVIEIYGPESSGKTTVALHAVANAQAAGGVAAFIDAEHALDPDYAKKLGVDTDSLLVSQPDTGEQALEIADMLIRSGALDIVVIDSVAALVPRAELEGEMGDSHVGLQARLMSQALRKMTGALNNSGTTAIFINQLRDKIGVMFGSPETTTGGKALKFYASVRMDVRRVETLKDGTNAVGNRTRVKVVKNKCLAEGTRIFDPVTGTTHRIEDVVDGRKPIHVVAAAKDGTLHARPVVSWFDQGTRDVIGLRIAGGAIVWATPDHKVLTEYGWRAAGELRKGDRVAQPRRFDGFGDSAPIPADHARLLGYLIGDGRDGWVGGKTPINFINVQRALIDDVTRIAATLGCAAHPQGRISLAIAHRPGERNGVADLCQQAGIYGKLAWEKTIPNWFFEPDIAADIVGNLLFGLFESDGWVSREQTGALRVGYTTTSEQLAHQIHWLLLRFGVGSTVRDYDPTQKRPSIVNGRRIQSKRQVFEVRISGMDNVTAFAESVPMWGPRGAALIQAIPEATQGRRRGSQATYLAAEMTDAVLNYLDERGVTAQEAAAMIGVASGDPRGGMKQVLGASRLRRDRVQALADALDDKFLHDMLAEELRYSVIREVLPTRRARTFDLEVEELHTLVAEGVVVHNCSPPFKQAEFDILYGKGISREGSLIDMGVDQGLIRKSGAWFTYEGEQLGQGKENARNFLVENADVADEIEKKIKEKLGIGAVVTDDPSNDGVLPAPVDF

[15] = intracellular Trypanosoma cruzi inhibitors in host cells – cell-based, plate reader, cherry-pick samples, set 3, dose response (AID 651818); format: functional;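 note: compounds incubated with infected cells for about four days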
[16] = P. falciparum Dd2 growth inhibitors, dose response, SYBR Green, cherry-picked samples (AID 1159567); format: functional, cell-based
[17] = biological target: FAD-linked sulfhydryl oxidase ALR (Homo sapiens, UniProt P55789); assay: inhibitors of human ALR sulfhydryl oxidase, dose response, biochemical, H2O2 detection, luminescence, cherry-pick (AID 493248)
Sequence of FAD-linked sulfhydryl oxidase ALR (P55789 whole entry): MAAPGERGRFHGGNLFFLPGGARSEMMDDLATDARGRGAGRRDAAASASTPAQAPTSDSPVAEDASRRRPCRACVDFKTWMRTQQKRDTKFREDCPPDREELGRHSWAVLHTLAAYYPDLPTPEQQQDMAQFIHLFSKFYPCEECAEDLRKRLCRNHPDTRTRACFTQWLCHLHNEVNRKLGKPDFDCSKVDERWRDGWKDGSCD

Sequence of Large T antigen (P03070 whole entry): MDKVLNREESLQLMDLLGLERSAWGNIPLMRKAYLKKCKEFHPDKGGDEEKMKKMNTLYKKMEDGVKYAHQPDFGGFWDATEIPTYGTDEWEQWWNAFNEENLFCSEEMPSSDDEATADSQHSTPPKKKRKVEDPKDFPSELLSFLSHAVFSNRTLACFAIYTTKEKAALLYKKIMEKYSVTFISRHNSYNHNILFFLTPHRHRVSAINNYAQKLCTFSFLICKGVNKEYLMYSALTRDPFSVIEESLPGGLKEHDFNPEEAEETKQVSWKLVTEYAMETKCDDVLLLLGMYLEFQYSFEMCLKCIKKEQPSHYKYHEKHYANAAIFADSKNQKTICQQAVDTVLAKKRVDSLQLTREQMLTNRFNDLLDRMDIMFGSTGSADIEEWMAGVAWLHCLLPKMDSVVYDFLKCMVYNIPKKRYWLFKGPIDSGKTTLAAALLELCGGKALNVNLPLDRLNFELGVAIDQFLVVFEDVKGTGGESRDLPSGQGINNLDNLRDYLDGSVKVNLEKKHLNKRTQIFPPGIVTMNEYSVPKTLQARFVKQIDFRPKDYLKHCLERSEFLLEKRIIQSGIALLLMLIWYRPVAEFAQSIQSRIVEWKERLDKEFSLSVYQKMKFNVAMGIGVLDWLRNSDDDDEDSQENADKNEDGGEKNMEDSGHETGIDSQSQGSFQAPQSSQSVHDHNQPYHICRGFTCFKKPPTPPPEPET
Sequence of Fatty acid synthase (P49327 whole entry, the tested form may be a part): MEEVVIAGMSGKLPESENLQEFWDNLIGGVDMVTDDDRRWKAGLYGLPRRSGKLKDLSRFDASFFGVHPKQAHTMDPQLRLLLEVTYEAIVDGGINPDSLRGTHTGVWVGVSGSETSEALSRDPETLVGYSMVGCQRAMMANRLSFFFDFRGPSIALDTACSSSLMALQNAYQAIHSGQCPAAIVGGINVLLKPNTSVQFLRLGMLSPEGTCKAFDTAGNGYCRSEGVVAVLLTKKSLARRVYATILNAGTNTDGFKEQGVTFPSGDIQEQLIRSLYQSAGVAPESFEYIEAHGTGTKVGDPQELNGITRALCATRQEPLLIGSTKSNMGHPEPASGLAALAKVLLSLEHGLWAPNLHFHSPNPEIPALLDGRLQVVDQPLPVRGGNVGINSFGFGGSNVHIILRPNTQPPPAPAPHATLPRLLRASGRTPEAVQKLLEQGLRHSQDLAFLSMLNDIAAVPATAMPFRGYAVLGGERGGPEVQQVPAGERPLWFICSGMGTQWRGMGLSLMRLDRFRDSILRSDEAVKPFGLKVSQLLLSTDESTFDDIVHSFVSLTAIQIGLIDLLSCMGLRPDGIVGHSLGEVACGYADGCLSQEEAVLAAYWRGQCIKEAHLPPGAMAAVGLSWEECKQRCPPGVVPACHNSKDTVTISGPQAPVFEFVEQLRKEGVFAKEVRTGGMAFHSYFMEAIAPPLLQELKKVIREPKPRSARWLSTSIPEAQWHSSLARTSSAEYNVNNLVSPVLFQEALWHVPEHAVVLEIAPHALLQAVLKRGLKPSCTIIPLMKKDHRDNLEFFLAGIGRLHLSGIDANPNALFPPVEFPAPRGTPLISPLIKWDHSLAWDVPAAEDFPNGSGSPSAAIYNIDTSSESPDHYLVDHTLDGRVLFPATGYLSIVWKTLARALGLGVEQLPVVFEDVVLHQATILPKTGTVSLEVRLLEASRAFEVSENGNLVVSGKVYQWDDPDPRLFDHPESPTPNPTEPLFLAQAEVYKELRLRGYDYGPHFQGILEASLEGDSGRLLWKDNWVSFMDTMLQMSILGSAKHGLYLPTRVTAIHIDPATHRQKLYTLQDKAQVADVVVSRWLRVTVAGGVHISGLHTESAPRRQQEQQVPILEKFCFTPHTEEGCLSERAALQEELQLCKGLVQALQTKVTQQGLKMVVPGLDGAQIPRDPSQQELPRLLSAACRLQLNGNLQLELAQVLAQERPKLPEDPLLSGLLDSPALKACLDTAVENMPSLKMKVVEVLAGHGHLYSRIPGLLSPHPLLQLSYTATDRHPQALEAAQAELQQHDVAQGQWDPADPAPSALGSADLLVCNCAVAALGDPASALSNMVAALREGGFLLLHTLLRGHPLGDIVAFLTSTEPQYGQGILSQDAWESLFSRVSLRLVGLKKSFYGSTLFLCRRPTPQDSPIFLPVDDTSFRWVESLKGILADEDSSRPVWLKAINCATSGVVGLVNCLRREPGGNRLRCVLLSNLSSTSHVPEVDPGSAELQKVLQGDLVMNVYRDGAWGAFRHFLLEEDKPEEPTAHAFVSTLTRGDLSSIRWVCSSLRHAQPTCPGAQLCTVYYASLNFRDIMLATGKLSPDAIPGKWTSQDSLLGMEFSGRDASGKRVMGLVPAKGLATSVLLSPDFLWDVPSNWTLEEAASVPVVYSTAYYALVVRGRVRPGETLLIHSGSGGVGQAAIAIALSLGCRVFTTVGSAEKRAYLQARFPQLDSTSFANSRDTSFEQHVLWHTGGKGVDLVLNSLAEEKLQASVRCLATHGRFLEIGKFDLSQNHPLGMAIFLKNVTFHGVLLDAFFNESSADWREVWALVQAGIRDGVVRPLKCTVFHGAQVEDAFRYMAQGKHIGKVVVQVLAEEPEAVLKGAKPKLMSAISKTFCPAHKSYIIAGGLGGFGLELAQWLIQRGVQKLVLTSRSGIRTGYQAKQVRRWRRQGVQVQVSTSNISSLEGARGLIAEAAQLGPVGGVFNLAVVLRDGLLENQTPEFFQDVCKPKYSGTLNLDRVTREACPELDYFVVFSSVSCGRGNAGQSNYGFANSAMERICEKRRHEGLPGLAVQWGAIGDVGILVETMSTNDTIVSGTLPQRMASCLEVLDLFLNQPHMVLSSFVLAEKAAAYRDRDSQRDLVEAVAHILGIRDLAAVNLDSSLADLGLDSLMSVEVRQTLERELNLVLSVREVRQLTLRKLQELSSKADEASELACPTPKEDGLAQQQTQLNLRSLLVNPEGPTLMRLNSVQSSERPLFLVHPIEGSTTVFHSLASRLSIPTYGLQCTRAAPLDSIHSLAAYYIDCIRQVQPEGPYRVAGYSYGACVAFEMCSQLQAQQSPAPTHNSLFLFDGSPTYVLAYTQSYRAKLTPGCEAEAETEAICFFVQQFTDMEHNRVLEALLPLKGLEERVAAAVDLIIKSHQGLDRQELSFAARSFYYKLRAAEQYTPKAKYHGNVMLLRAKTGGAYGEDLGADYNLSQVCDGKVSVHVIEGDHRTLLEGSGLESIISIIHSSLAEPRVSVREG

## O=c1cc(-c2ccc(O)c(O)c2)oc2cc(O)c(C3OC(CO)C(O)C(O)C3O)c(O)c12 (stereo not given)
[1]
  IC50: 5.23 µM (active)
[2]
  IC50: 42.9 µM (active)

## O=C(NCc1ccco1)c1cc(-c2cccnc2)nc2ccc(Cl)cc12
[3]
  IC50: > 79 µM (inactive)

## COc1ccc(N2C(=O)CC(Sc3n[nH]c(-c4cccc(C)c4)n3)C2=O)cc1 (stereo not given)
[1]
  IC50: 76.5 µM (active)

## CCOc1cc(N2CCOCC2)c(OCC)cc1NC(=O)COC(=O)CCOc1ccc(C)cc1
[1]
  IC50: > 100 µM (active)

## O=C(NN=C(Cc1ccccc1)Cc1ccccc1)c1ccncc1
[4]
  IC50: 0.17 µM (active)

## O=C(O)c1ccccc1C(=O)NC1=NN(c2ccccc2)CC1
[1]
  IC50: 14.2 µM (active)

## CCCCCn1c(=O)c(C(=O)NCc2ccccn2)c(O)c2ccccc21
[3]
  IC50: 5.88 µM (active)

## C=CCc1c(C)nc2c(-c3ccccc3)cnn2c1N1CCOCC1
[5]
  EC50: > 195 µM (not active)
[6]
  EC50: > 350 µM (not active)
[7]
  EC50: > 350 µM (not active)

## COc1ccc(C(C(=O)NC2CCCCC2)N(C(=O)CCl)c2ccccc2Cl)cc1 (stereo not given)
[8]
  EC50: 0.566 µM (inconclusive)
[9]
  EC50: > 150 µM (not active)
[10]
  EC50: > 150 µM (not active)
[11]
  EC50: 4.62 µM (inconclusive)

## Cc1nc(N2CCN(c3ccccn3)CC2)c2c(C)c(C(=O)Nc3ccc(F)cc3)sc2n1
[3]
  IC50: > 79 µM (inactive)

## COc1cc(C(=O)NCCCNc2nc3cc(C)cc(C)c3cc2C#N)cc(OC)c1OC
[3]
  IC50: > 79 µM (inactive)

## Cc1cc(C)c(S(=O)(=O)N2CCN(C(=O)c3cc(O)nc4ccccc34)CC2)c(C)c1
[3]
  IC50: > 79 µM (inactive)

## CC(C)(C)OC(=O)NCCCC[C@H](NC(=O)c1[nH]cnc1C(=O)NCC(=O)OCc1ccccc1)C(=O)OC(C)(C)C
[12]
  IC50: 0.16 µM (active)

## Cc1ccc(NC(=O)COC(=O)C2=COCCO2)c([N+](=O)[O-])c1
[4]
  IC50: 3.39 µM (active)

## COc1ccc(C(=O)Nc2ccc(O)c3ccccc23)cc1
[13]
  AC50: 1.22 µM (active)
[14]
  EC50: 0.0744 µM (active)
[1]
  IC50: 30.8 µM (active)

## CCC(Oc1ccccc1)C(=O)Nc1ccccc1C(=O)N1CCCCC1 (stereo not given)
[3]
  IC50: 23.8 µM (active)

## COc1cc(NC(=O)c2ccc(-c3cn[nH]c3)c3ccoc23)cc(OC)c1OC
[3]
  IC50: > 79 µM (inactive)

## C[C@H]1CN([C@@H](C)CO)C(=O)c2cc(NS(=O)(=O)c3ccccc3)ccc2O[C@H]1CN(C)Cc1ccc(Cl)c(Cl)c1
[15]
  AC50: 5.12 µM (active)

## C[C@@H]1CN([C@H](C)CO)C(=O)Cc2cc(NC(=O)Cc3cn(C)c4ccccc34)ccc2O[C@H]1CN(C)Cc1ccc(Cl)c(Cl)c1
[15]
  AC50: 3.78 µM (active)

## C[C@H](CO)N1C[C@H](C)[C@H](CN(C)Cc2ccc(C(F)(F)F)cc2)Oc2ccc(NC(=O)Nc3ccc4c(c3)OCO4)cc2CC1=O
[15]
  AC50: 5.85 µM (active)

## C[C@@H]1CN([C@H](C)CO)C(=O)Cc2cc(NC(=O)Nc3ccc(C(F)(F)F)cc3)ccc2O[C@@H]1CN(C)S(=O)(=O)c1ccc(F)cc1
[15]
  AC50: 7.08 µM (active)

## C[C@@H]1CN([C@H](C)CO)C(=O)c2cccc(NC(=O)NC3CCCCC3)c2O[C@H]1CN(C)Cc1ccc(C(F)(F)F)cc1
[15]
  AC50: 1.86 µM (active)

## C[C@@H]1CN([C@H](C)CO)C(=O)Cc2cc(NC(=O)Nc3ccc4c(c3)OCO4)ccc2O[C@@H]1CN(C)Cc1ccc(Cl)c(Cl)c1
[15]
  AC50: 3.71 µM (active)

## C[C@H](CO)N1C[C@H](C)[C@H](CN(C)CC2CCCCC2)Oc2c(NC(=O)c3nc4ccccc4s3)cccc2C1=O
[15]
  AC50: 3.31 µM (active)

## C[C@@H]1CN([C@@H](C)CO)C(=O)Cc2cc(NC(=O)Nc3ccc(C(F)(F)F)cc3)ccc2O[C@@H]1CN(C)S(=O)(=O)c1ccccc1
[15]
  AC50: 3.88 µM (active)

## COc1cccc(C(C[N+](=O)[O-])c2c(C)[nH]n(-c3ccccc3)c2=O)c1 (stereo not given)
[13]
  AC50: 16.5 µM (active)
[14]
  EC50: 2.25 µM (active)
[6]
  EC50: > 350 µM (not active)
[7]
  EC50: > 350 µM (not active)

## CO[C@@H]1CN(C)C(=O)c2ccc(NC(=O)Nc3ccc(F)cc3)cc2OC[C@@H](C)N(C(=O)c2ccc(F)cc2)C[C@H]1C
[16]
  AC50: 8.03 µM (active)

## CCN(CC)S(=O)(=O)c1ccc(N/N=C/c2ccc(O)cc2)nc1
[1]
  IC50: 11.5 µM (active)
[2]
  IC50: 31.5 µM (active)

## COc1cc(/C=N\NC(=O)CNC(=O)c2cccc([N+](=O)[O-])c2)ccc1O
[1]
  IC50: 3.75 µM (active)
[17]
  AC50: 2.41 µM (active)
[2]
  IC50: 16.5 µM (active)

## O=C(Nc1ccc(F)cc1)N1CC(=O)N2[C@H](C1)[C@@H](c1ccc(C#Cc3ccc(F)cc3)cc1)[C@@H]2CO
[16]
  AC50: 4.49 µM (active)

## CO[C@H]1CN(C)C(=O)c2ccc(NS(=O)(=O)CC(F)(F)F)cc2OC[C@@H](C)N(Cc2nccs2)C[C@H]1C
[16]
  AC50: > 39 µM (inactive)
